The values below come from PMC3293837, “Biophysical Property and Broad Anti-HIV Activity of Albuvirtide, a 3-Maleimimidopropionic Acid-Modified Peptide Fusion Inhibitor” (PLoS ONE, 2012).

The structures appear in SMILES notation. Like-named read-outs stand apart in the source and are kept apart here. Side chains are listed from the residue outwards. Peptide text beside a SMILES is read from it. * marks the point of attachment. Propanoyl(3-maleimido) = O=C1C=CC(=O)N1CCC(=O)*; AEEA = NCCOCCOCC(=O)O

Data set [1] relates to HIV-1NL4-3 Env-pseudotyped virus. Format: cell-based.
Method: (§1) HIV-1 pseudoviruses were generated as described previously [32], [55]–[56]. Briefly, 293T cells (5×10^6 cells in 15 ml of growth medium in a T-75 culture flask) were cotransfected with 10 µg of an Env-expressing plasmid and 20 µg of a backbone plasmid pSG3deltaEnv that encodes Env-defective, luciferase-expressing HIV-1 genome using Lipofectamine 2000 reagent (Invitrogen). Pseudovirus-containing culture supernatants were harvested 48 hours after transfection and filtered by 0.45-mm pore size, and stored at −80°C in 1-ml aliquots until use. The 50% tissue culture infectious dose (TCID50) of a single thawed aliquot of each pseudovirus batch was determined in TZM-bl cells. […] Briefly, the peptides were prepared with ten series dilutions in a 3-fold stepwise manner and mixed with 100 TCID50 viruses and incubated 1 hour at room temperature. The mixture was added to TZM-bl cells (10^4/well) and incubation at 37°C for 48 hours. Luciferase activity was measured using luciferase assay regents (Promega, Medison, WI) and a Luminescence Counter (Promega) according to the manufacture's instructions.
Data set [2] relates to HIV-1NL4-3 Q40H pseudovirus. Format: cell-based.
Method: (§2) The mutations were created using double-stranded DNA templates and selection of mutants with DpnI. For each mutation, the two primers contained the desired mutation and occupied the same starting and ending positions on opposite strands of the plasmid DNA. DNA synthesis was carried out by PCR in a 50-µL reaction volume using 1 µL of denatured plasmid template (1 ng/µL), 50 pmol of upper and lower primers and 5 U of high-fidelity thermostable polymerase PrimeStar (Takara, Dalian, China). PCR amplification was carried out for one cycle of denaturation at 98°C for 5 min, then 18 cycles of 98°C for 15 s and 68°C for 15 min, followed a final extension at 72°C for 10 min. The amplicons were treated with the restriction enzyme DpnI for 1 h at 37°C. DpnI-resistant molecules, which were rich in the desired mutants, were recovered by transforming Escherichia coli strain-DH5α to antibiotic resistance. The successful mutations were confirmed by sequencing.
as §1
The subject of data set [3] is HIV-1NL4-3 I37T/N43K pseudovirus. Format: cell-based.
Method: as §2, §1
Data set [4] deals with HIV-1NL4-3 I37T pseudovirus. It is filed as cell-based.
Method: as §1
Data set [5] relates to HIV-1NL4-3 V38M pseudovirus. Format: cell-based.
Method: as §1
For data set [6], the system named is HIV-1NL4-3 N43K pseudovirus. It is filed as cell-based.
Method: as §2, §1
Data set [7] relates to HIV-1NL4-3 D36G pseudovirus. It is filed as cell-based.
Method: as §1
The test system of data set [8] is HIV-1NL4-3 D36S/V38M pseudovirus. Format: cell-based.
Method: as §2, §1
The test system of data set [9] is HIV-1NL4-3 V38A/N42T pseudovirus. Format: cell-based.
Method: as §1
Data set [10] concerns HIV-1NL4-3 V38A pseudovirus. Format: cell-based.
Method: as §1
The conditions of data set [11]: rats, intravenous, ref [25], cited from earlier work.
For data set [12] the following is noted: monkeys, intravenous, ref [25], cited from earlier work.
[13] abbreviates: after conjugation with serum albumin.
[14] abbreviates: value from which half-life was extended by albumin conjugation.

Regarding `Cc1cn([C@H]2C[C@H](N=[N+]=[N-])[C@@H](CO)O2)c(=O)[nH]c1=O` [AZT], the IC50 came out at 107 ± 23.2 nM in [1] (HIV-1NL4-3 WT pseudovirus, Table 3, TZM-bl, 48 h, mean ± SD of three independent experiments, read-out: IC50); 33.2 ± 7.2 nM in data set [2] (HIV-1NL4-3 Q40H, TZM-bl, 48 h, mean ± SD of three independent experiments); 139 ± 14.9 nM in data set [3] (HIV-1NL4-3 I37T/N43K, TZM-bl, 48 h, mean ± SD of three independent experiments); 93.5 ± 13.5 nM in data set [4] (HIV-1NL4-3 I37T, TZM-bl, 48 h, mean ± SD of three independent experiments); 47.8 ± 3.7 nM in data set [5] (HIV-1NL4-3 V38M, TZM-bl, 48 h, mean ± SD of three independent experiments); 153 ± 7.4 nM in data set [6] (HIV-1NL4-3 N43K, TZM-bl, 48 h, mean ± SD of three independent experiments). Further, the IC50 in data set [7] (HIV-1NL4-3 D36G, TZM-bl, 48 h, mean ± SD of three independent experiments) was 59.4 ± 5.9 nM; in data set [8] (HIV-1NL4-3 D36S/V38M, TZM-bl, 48 h, mean ± SD of three independent experiments), 40.3 ± 8.6 nM; in data set [9] (HIV-1NL4-3 V38A/N42T, TZM-bl, 48 h, mean ± SD of three independent experiments), 38.1 ± 3.7 nM; in data set [10] (HIV-1NL4-3 V38A, TZM-bl, 48 h, mean ± SD of three independent experiments) it was 42.3 ± 9 nM. Also, the “Fold change (in parentheses)” value was 1.8 in data set [1] (WT, reference D36G); 0.6 in [2] (Q40H, reference D36G); 2.3 in data set [3] (I37T/N43K, reference D36G); 1.6 in data set [4] (I37T, reference D36G); 0.8 in data set [5] (V38M, reference D36G); 2.6 in [6] (N43K, reference D36G). For the same compound, the “Fold change (in parentheses)” value came to 1.0 in data set [7] (D36G, reference D36G); 0.7 in data set [8] (D36S/V38M, reference D36G); 0.6 in data set [9] (V38A/N42T, reference D36G); 0.7 in data set [10] (V38A, reference D36G). Moreover, the Fold change in data set [1] (WT, reference wild-type) came out at 1.0; in [2] (Q40H, reference wild-type) it was 0.3; in data set [3] (I37T/N43K, reference wild-type) it was 1.3; in data set [4] (I37T, reference wild-type), 0.9; in data set [5] (V38M, reference wild-type) it was 0.5; in data set [6] (N43K, reference wild-type), 1.4. Also, the Fold change worked out at 0.6 in data set [7] (D36G, reference wild-type); 0.4 in data set [8] (D36S/V38M, reference wild-type); 0.4 in [9] (V38A/N42T, reference wild-type); 0.4 in data set [10] (V38A, reference wild-type).

Regarding `CC[C@H](C)[C@H](NC(=O)[C@H](CC(C)C)NC(=O)[C@H](CCC(=O)O)NC(=O)[C@H](Cc1c[nH]cn1)NC(=O)[C@@H](NC(=O)[C@H](CC(C)C)NC(=O)[C@H](CCCCNC(=O)COCCOCCNC(=O)CCN1C(=O)C=CC1=O)NC(=O)[C@@H](NC(=O)[C@H](Cc1ccc(O)cc1)NC(=O)[C@H](CC(N)=O)NC(=O)[C@H](CC(N)=O)NC(=O)[C@@H](NC(=O)[C@H](CCC(=O)O)NC(=O)[C@H](CCCNC(=N)N)NC(=O)[C@H](CC(=O)O)NC(=O)[C@H](Cc1c[nH]c2ccccc12)NC(=O)[C@H](CCC(=O)O)NC(=O)[C@H](CCC(=O)O)NC(=O)[C@H](Cc1c[nH]c2ccccc12)NC(C)=O)[C@@H](C)CC)[C@@H](C)O)[C@@H](C)CC)C(=O)N[C@@H](CCC(=O)O)C(=O)N[C@@H](CCC(=O)O)C(=O)N[C@@H](CO)C(=O)N[C@@H](CCC(N)=O)C(=O)N[C@@H](CC(N)=O)C(=O)N[C@@H](CCC(N)=O)C(=O)N[C@@H](CCC(N)=O)C(=O)N[C@@H](CCC(=O)O)C(=O)N[C@@H](CCCCN)C(=O)N[C@@H](CC(N)=O)C(=O)N[C@@H](CCC(=O)O)C(=O)N[C@@H](CCC(N)=O)C(=O)N[C@@H](CCC(=O)O)C(=O)N[C@@H](CC(C)C)C(=O)N[C@@H](CC(C)C)C(N)=O` [ABT] (Ac-WEEWDREINNYTK([AEEA-Propanoyl(3-maleimido)])LIHELIEESQNQQEKNEQELL-NH2), the figures for the “in vivo half-life (extended, 'to')” value in [11] (setting [13]) and in data set [12] (setting [13]) were 25.8 h and 102.4 h, respectively. The results for the “in vivo half-life (before extension, 'from')” value in data set [11] (setting [14]) and in [12] (setting [14]) were 1.67 h and 10.89 h, respectively.
